Tested on: serum sPLA2
Assay: Effect of twice-a-day oral A-002 on serum sPLA2 levels in subjects with stable coronary artery disease (Example 6)
Format: in vivo, human
Protocol: The protocol for preparing standard curve, test, and quality control samples for use in the assay disclosed herein is set forth in Example 5. Samples are prepared according to this protocol, then loaded in duplicate onto a plate (Cayman catalog no. 485002 or equivalent) that has been pre-coated with a monoclonal sPLA2 antibody (“capture antibody”) that specifically binds sPLA2. In certain embodiments, the capture antibody may interact with a specific form of sPLA2, such as for example sPLA2 type IIA.
sPLA2 acetylcholinesterase:Fab′ conjugate (AChE:Fab′) (“conjugate”) (Cayman catalog no. 485000 or equivalent) is reconstituted in EIA buffer (Cayman catalog no. 400060 or equivalent). Cayman EIA buffer is 1M phosphate, pH 7.0, 1% BSA, 4M NaCl, 10 mM EDTA, and 0.1% sodium azide. Reconstituted conjugate is added to each well of the plate. The conjugate binds a different sPLA2 epitope than the capture antibody, allowing the capture antibody and the conjugate to form a “sandwich” that is immobilized on the plate. Excess reagents are washed away, and the plate is covered and incubated overnight at 2-8° C.
Prior to development, the wells are washed five to six times with wash buffer (Cayman catalog no. 400062 or equivalent). To develop the plate, Ellman's Reagent (Cayman catalog no. 400050 or equivalent) is reconstituted in water and added to each well according to manufacturer instructions. The reconstituted Ellman's Reagent must be used the same day it is prepared because it is unstable. Ellman's Reagent contains an AChE substrate. Specifically, Ellman's Reagent contains acetylthiocholine and 5,5′-dithio-bis-(2-nitrobenzoic acid). Hydrolysis of acetylthiocholine by acetylcholinesterase produces thiocholine, which reacts with 5,5′-dithio-bis-(2-nitrobenzoic acid) to produce 5-thio-2-nitrobenzoic acid. 5-thio-2-nitrobenzoic acid has a strong absorbance at 412 nm. The intensity of absorbance at this wavelength is directly proportional to the concentration of bound conjugate, which is in turn is directly proportional to the concentration of sPLA2 present (Absorbance a [AChE:Fab′ conjugate] α [sPLA2]). During the development step, the plate is shaken, preferably in the dark. In certain embodiments the development time for the assay is 0.5 to 3 hours, preferably 1 to 1.5 hours. At the end of the development period, the high sPLA2 standards should have greater yellow color development than the zero standards. Absorbance of each well is measured at 400-420 nm using a micro-well plate reader. In certain embodiments, absorbance is measured at about 405 nm.
Absorbance readings for duplicate wells are averaged, and the relative standard deviation and % CV are calculated. Standard curve data are used to generate a four parameter curve, and quality control and test samples are measured against the appropriate standard curve (i.e., the standard curve with the same serum content). In order for a test to be considered valid, variation between duplicate wells should be no more than about 25%, and negative controls (blanks) for each standard curve should have a mean absorbance of less than about 0.3.
The method disclosed herein for measuring sPLA2 levels in serum was utilized to determine the effect of administering certain sPLA2 inhibitors on sPLA2 levels in 84 human subjects. The subjects included 24 subjects with diabetes, 32 subjects with metabolic syndrome, and 75 subjects receiving statin treatment. Subjects were administered the sPLA2 inhibitor A-002, a prodrug form of A-001, twice a day at varying dosages from 50 to 500 mg. The structures of A-002and A-001 are set forth below. At two weeks and four weeks after the first administration, sPLA2 levels were measured and compared to pre-administration baseline levels.
84 subjects with stable coronary artery disease were randomized to receive placebo or A-002 via oral administration twice a day over a four week administration period. […]

[1] = 100 mg, statin subgroup of ITT population
[2] = 250 mg, diabetes subgroup of ITT population
[3] = 250 mg, non-diabetes subgroup of ITT population
[4] = 250 mg, statin subgroup of ITT population
[5] = 500 mg, diabetes subgroup of ITT population
[6] = 500 mg, non-diabetes subgroup of ITT population

CCc1c(C(=O)C(N)=O)c2c(OCC(=O)OC)cccc2n1Cc1ccccc1 [A-002, [[3-(2-Amino-1,2-dioxoethyl)-2-ethyl-1-(phenylmethyl)-1H-indol-4-yl]oxy]acetic acid methyl ester]
sPLA2 Change from baseline at week 4, Range [1]: -5.70 to 0.00 ng/mL
sPLA2 level, Baseline, Mean [1]: 2.72 ng/mL
sPLA2 level, Baseline, Median [1]: 2.65 ng/mL
sPLA2 level, Baseline, Range [1]: 0.05 to 6.00 ng/mL
sPLA2 level, Week 2, Mean [1]: 0.66 ng/mL
sPLA2 level, Week 2, Median [1]: 0.40 ng/mL
sPLA2 level, Week 2, Range [1]: 0.05 to 2.90 ng/mL
sPLA2 level, Week 4, Mean [1]: 0.44 ng/mL
sPLA2 level, Week 4, Median [1]: 0.40 ng/mL
sPLA2 level, Week 4, Range [1]: 0.05 to 1.00 ng/mL
sPLA2 Change from baseline at week 2, Mean (250 mg, ITT population): -2.02 ng/mL
sPLA2 Change from baseline at week 2, Median (250 mg, ITT population): -1.90 ng/mL
sPLA2 Change from baseline at week 2, Range (250 mg, ITT population): -4.20 to -0.20 ng/mL
sPLA2 Change from baseline at week 4, Mean (250 mg, ITT population): -2.13 ng/mL
sPLA2 Change from baseline at week 4, Median (250 mg, ITT population): -2.20 ng/mL
sPLA2 Change from baseline at week 4, Range (250 mg, ITT population): -4.20 to 0.20 ng/mL
sPLA2 level, Baseline, Mean (250 mg, ITT population): 2.88 ng/mL
sPLA2 level, Baseline, Median (250 mg, ITT population): 2.40 ng/mL
sPLA2 level, Baseline, Range (250 mg, ITT population): 1.30 to 5.20 ng/mL
sPLA2 level, Week 2, Mean (250 mg, ITT population): 0.73 ng/mL
sPLA2 level, Week 2, Median (250 mg, ITT population): 0.35 ng/mL
sPLA2 level, Week 2, Range (250 mg, ITT population): 0.05 to 4.40 ng/mL
sPLA2 level, Week 4, Mean (250 mg, ITT population): 0.61 ng/mL
sPLA2 level, Week 4, Median (250 mg, ITT population): 0.35 ng/mL
sPLA2 level, Week 4, Range (250 mg, ITT population): 0.05 to 2.30 ng/mL
sPLA2 Change from baseline at week 2, Mean [2]: -1.83 ng/mL
sPLA2 Change from baseline at week 2, Median [2]: -1.10 ng/mL
sPLA2 Change from baseline at week 2, Range [2]: -4.20 to -0.20 ng/mL
sPLA2 Change from baseline at week 4, Mean [2]: -1.75 ng/mL
sPLA2 Change from baseline at week 4, Median [2]: -1.25 ng/mL
sPLA2 Change from baseline at week 4, Range [2]: −4.20 to +0.20 ng/ml
sPLA2 level, Baseline, Mean [2]: 3.00 ng/mL
sPLA2 level, Baseline, Median [2]: 3.00 ng/mL
sPLA2 level, Baseline, Range [2]: 1.30 to 4.70 ng/mL
sPLA2 level, Week 2, Mean [2]: 0.60 ng/mL
sPLA2 level, Week 2, Median [2]: 0.50 ng/mL
sPLA2 level, Week 2, Range [2]: 0.20 to 1.10 ng/mL
sPLA2 level, Week 4, Mean [2]: 0.68 ng/mL
sPLA2 level, Week 4, Median [2]: 0.50 ng/mL
sPLA2 level, Week 4, Range [2]: 0.05 to 1.50 ng/mL
sPLA2 Change from baseline at week 2, Mean [3]: -2.08 ng/mL
sPLA2 Change from baseline at week 2, Median [3]: -2.00 ng/mL
sPLA2 Change from baseline at week 2, Range [3]: -3.80 to -0.80 ng/mL
sPLA2 Change from baseline at week 4, Mean [3]: -2.25 ng/mL
sPLA2 Change from baseline at week 4, Median [3]: -2.20 ng/mL
sPLA2 Change from baseline at week 4, Range [3]: -3.50 to -1.20 ng/mL
sPLA2 level, Baseline, Mean [3]: 2.84 ng/mL
sPLA2 level, Baseline, Median [3]: 2.40 ng/mL
sPLA2 level, Baseline, Range [3]: 1.50 to 5.20 ng/mL
sPLA2 level, Week 2, Mean [3]: 0.76 ng/mL
sPLA2 level, Week 2, Median [3]: 0.30 ng/mL
sPLA2 level, Week 2, Range [3]: 0.05 to 4.40 ng/mL
sPLA2 level, Week 4, Mean [3]: 0.60 ng/mL
sPLA2 level, Week 4, Median [3]: 0.30 ng/mL
sPLA2 level, Week 4, Range [3]: 0.05 to 2.30 ng/mL
sPLA2 Change from baseline at week 2, Mean [4]: -2.01 ng/mL
sPLA2 Change from baseline at week 2, Median [4]: -1.65 ng/mL
sPLA2 Change from baseline at week 2, Range [4]: -4.20 to -0.20 ng/mL
sPLA2 Change from baseline at week 4, Mean [4]: -2.13 ng/mL
sPLA2 Change from baseline at week 4, Median [4]: -2.15 ng/mL
sPLA2 Change from baseline at week 4, Range [4]: −4.20 to +0.20 ng/ml
sPLA2 level, Baseline, Mean [4]: 2.84 ng/mL
sPLA2 level, Baseline, Median [4]: 2.40 ng/mL
sPLA2 level, Baseline, Range [4]: 1.30 to 5.20 ng/mL
sPLA2 level, Week 2, Mean [4]: 0.68 ng/mL
sPLA2 level, Week 2, Median [4]: 0.30 ng/mL
sPLA2 level, Week 2, Range [4]: 0.05 to 4.40 ng/mL
sPLA2 level, Week 4, Mean [4]: 0.57 ng/mL
sPLA2 level, Week 4, Median [4]: 0.30 ng/mL
sPLA2 level, Week 4, Range [4]: 0.05 to 2.30 ng/mL
sPLA2 Change from baseline at week 2, Mean (500 mg, ITT population): -2.84 ng/mL
sPLA2 Change from baseline at week 2, Median (500 mg, ITT population): -2.95 ng/mL
sPLA2 Change from baseline at week 2, Range (500 mg, ITT population): -4.80 to -0.55 ng/mL
sPLA2 Change from baseline at week 4, Mean (500 mg, ITT population): -2.87 ng/mL
sPLA2 Change from baseline at week 4, Median (500 mg, ITT population): -2.95 ng/mL
sPLA2 Change from baseline at week 4, Range (500 mg, ITT population): -4.80 to -0.55 ng/mL
sPLA2 level, Baseline, Mean (500 mg, ITT population): 2.96 ng/mL
sPLA2 level, Baseline, Median (500 mg, ITT population): 2.80 ng/mL
sPLA2 level, Baseline, Range (500 mg, ITT population): 0.60 to 5.40 ng/mL
sPLA2 level, Week 2, Mean (500 mg, ITT population): 0.18 ng/mL
sPLA2 level, Week 2, Median (500 mg, ITT population): 0.05 ng/mL
sPLA2 level, Week 2, Range (500 mg, ITT population): 0.05 to 0.60 ng/mL
sPLA2 level, Week 4, Mean (500 mg, ITT population): 0.15 ng/mL
sPLA2 level, Week 4, Median (500 mg, ITT population): 0.05 ng/mL
sPLA2 level, Week 4, Range (500 mg, ITT population): 0.05 to 0.60 ng/mL
sPLA2 Change from baseline at week 2, Mean [5]: -3.75 ng/mL
sPLA2 Change from baseline at week 2, Median [5]: -3.50 ng/mL
sPLA2 Change from baseline at week 2, Range [5]: -4.80 to -2.95 ng/mL
sPLA2 Change from baseline at week 4, Mean [5]: -3.82 ng/mL
sPLA2 Change from baseline at week 4, Median [5]: -3.70 ng/mL
sPLA2 Change from baseline at week 4, Range [5]: -4.80 to -2.95 ng/mL
sPLA2 level, Baseline, Mean [5]: 3.73 ng/mL
sPLA2 level, Baseline, Median [5]: 3.40 ng/mL
sPLA2 level, Baseline, Range [5]: 2.70 to 5.40 ng/mL
sPLA2 level, Week 2, Mean [5]: 0.32 ng/mL
sPLA2 level, Week 2, Median [5]: 0.30 ng/mL
sPLA2 level, Week 2, Range [5]: 0.05 to 0.60 ng/mL
sPLA2 level, Week 4, Mean [5]: 0.25 ng/mL
sPLA2 level, Week 4, Median [5]: 0.10 ng/mL
sPLA2 level, Week 4, Range [5]: 0.05 to 0.60 ng/mL
sPLA2 Change from baseline at week 2, Mean [6]: -2.61 ng/mL
sPLA2 Change from baseline at week 2, Median [6]: -2.68 ng/mL
sPLA2 Change from baseline at week 2, Range [6]: -4.40 to -0.55 ng/mL
sPLA2 Change from baseline at week 4, Mean [6]: -2.63 ng/mL
sPLA2 Change from baseline at week 4, Median [6]: -2.53 ng/mL
sPLA2 Change from baseline at week 4, Range [6]: -4.35 to -0.55 ng/mL
sPLA2 level, Baseline, Mean [6]: 2.73 ng/mL
sPLA2 level, Baseline, Median [6]: 2.70 ng/mL
sPLA2 level, Baseline, Range [6]: 0.60 to 4.60 ng/mL
sPLA2 level, Week 2, Mean [6]: 0.15 ng/mL
sPLA2 level, Week 2, Median [6]: 0.05 ng/mL

Source: patent US20090062369A1, “USE OF SECRETORY PHOSPHOLIPASE A2 (SPLA2) INHIBITORS TO DECREASE SPLA2 LEVELS” (priority 2007, published 2009)
